Consider 1 compound from patent US6716851B2, “Substituted 2-aryl-4-arylaminopyrimidines and analogs as activators or caspases and inducers of apoptosis and the use thereof” (Cytovia, Inc., priority 2000, dated 2004).

The IC50 is the concentration that inhibits the measured activity by half. One may read the EC50 as the concentration giving half of the maximal effect.

In one experiment the test system is T47D cells. Put plainly: Clonogenic survival of T47D cells. Conditions: Homo sapiens, 48 h treatment, colonies after 7-10 days, read-out: IC50 inhibition of clonogenic survival (colony forming ability), T47D. In kind it is cell-based. The procedure:
T47D and MX-1 cells were grown according to the conditions according conditions recommended by American Type Culture Collection. In a well of a 96 well plate, 30,000 cells were seeded and treated with tested compound at the indicated concentrations for 48 hr in a 5% CO2-95% humidity incubator at 37° C. Control wells were treated with the same amount of solvent (DMSO) as the compound samples. After the 48 h treatment, the supernatant was removed to a sterile culture tube and the wells washed with phosphate buffered saline, and the adherent cells trypsinized for 5 min. The trypsinzed cells were added to the culture supernatant, cells were collected (1,200 rpm, 10 min), washed with phosphate buffered saline, and resuspended in fresh media. The cells were counted for trypan blue negative cells, and the cells diluted with fresh media to 1,000 cells/ml. To a well of a 24-well plate, 0.1 ml of the cell suspension was added along with 1 ml of fresh media (cell suspensions were passed through a 22G needle several times just before plating to form single cell suspensions). Plates are incubated in a 5% CO2-95% humidity incubator at 37° C. for 7-10 days. Colonies are counted when the sizes reached greater than 50 cells per colony. […] Colonies are rinsed with water and the colonies counted and the fraction surviving expressed as the percentage of the number of control colonies.

Another experiment deals with T-47D cells. Put plainly: Caspase cascade activation (N-(Ac-DEVD)-N'-ethoxycarbonyl-R110 fluorogenic substrate) in T-47D cells. In kind it is cell-based, Human. Conditions: 48 h incubation. In a few lines:
(§1)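 Cells (0.65×10^6/ml) exposed 48 h at 37 °C to compound (0.016-10 μM final), then lysed with 14 μM DEVD-R110 substrate buffer (PIPES pH 7.2, DTT, lysolecithin) for 3 h at room temperature. Net fluorescence (485/530 nm) relative to control; EC50 by sigmoidal dose-response.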

For another experiment, the system named is ZR-75-1 cells. The experiment can be described thus: Caspase cascade activation (N-(Ac-DEVD)-N'-ethoxycarbonyl-R110 fluorogenic substrate) in ZR-75-1 cells. In kind it is cell-based, Human. Conditions: ZR-75-1, 48 h incubation. Put shortly: as §1
Where [1] appears, read: caspase activity: ratio of net RFU of test compound to control.

On to `COc1cccc(Nc2cc(C(F)(F)F)nc(-c3ccccn3)n2)c1` [Compound A, 4-(3-methoxyanilino)-2-(2-pyridinyl)-6-(trifluoromethyl)pyrimidine], for which the IC50 in the experiment with T47D cells was roughly 100 nM. The EC50 with T-47D cells (Homo sapiens, T47D, caspase activation potency, read-out: T47 EC50) came out at 433 nM; in the experiment with ZR-75-1 cells (Homo sapiens, caspase activation potency) it was 140 nM. Besides, the “T47 Ratio 48 hr” value in the experiment with T-47D cells (setting [1]) amounted to 29.3. In addition, the “ZR Ratio 48 hr” value in the experiment with ZR-75-1 cells (setting [1]) is given as 3.6.
